# Source: article PMC7394103 (Frontiers in Pharmacology, 2020)
# Key:
# [1] = tested on: IL-6 secretion by synovial SW982 cells; test: IL-1β-induced IL-6 secretion by SW982 cells (ELISA); assay type: cell-based, human; conditions: for IC50: Homo sapiens, SW982, 30 min compound, then 5 ng/ml IL-1β, 24 h, read-out: SW982 IL-6 IC50
# Description: FLS, HUVEC, SW982, and THP-1 cells were plated in 96 well plates (10^4 to 10^5 cells/well) for 48 h before treatment. At 2 days post-confluency, the cells were serum-starved and washed twice (with the exception of THP-1 cell, which were not washed) with FBS-free medium prior to the addition of test compounds. […] Culture supernatants were collected and stored at –80°C. The levels of MMP-1 and MMP-3 were determined in culture supernatants using commercially available ELISA kits according to the manufacturer’s instructions (R&D System, Minneapolis, MN, USA). IL-6 levels were also determined in the supernatants using a human IL-6 ELISA kit (BD Biosciences, San Jose, CA, USA).
# [2] = target: JNK1; set-up: method as in Schepetkin et al., 2019; conditions: previously reported binding affinity; ref Schepetkin et al., 2019; cited from earlier work
# [3] = target: JNK3; set-up: method as in Schepetkin et al., 2019; conditions: previously reported binding affinity; ref Schepetkin et al., 2019; cited from earlier work
Compound,"overall inhibition of IL-6 secretion in combination with SP600125 ([1]; 5 µM TRYP plus SP600125, compared to SP600125 alone)",IC50 [1] [nM],Kd [2] [nM],JNK3 Kd [3]
"O=C1c2ccccc2-n2c1nc1ccccc1c2=O [TRYP, indolo[2,1-b]quinazolin-6,12-dione]",acted synergistically,2500 ± 1100,23000,No binding
"O=c1c2ccccc2nc2n1-c1ccccc1/C2=N/O [TRYP-Ox, tryptanthrin-6-oxime]",–,400 ± 200,–,–
